Experimental data reported in patent US20230272012A1, “PEPTIDES AND METHODS OF USE” (REALTA LIFE SCIENCES, INC., priority 2020, published 2023).
“Also recorded” adds a separate entry of the source. Bridge positions count the residues as written; N and C are the ends. Square brackets hold non-standard residues; d marks the D form. Ends that are not written are not given here. Peptide text beside a SMILES is read from it. R8 = C=CCCCCCC[C@@](C)(N)C(=O)O; S5 = C=CCCC[C@](C)(N)C(=O)O; Sar = CNCC(=O)O

Tests used:
Type in all cases: cell-based
[1] = test system: antibody-initiated complement activation (human O sera and AB red blood cells); test: ABO incompatibility hemolytic assay of complement activity (CH50-type); settings: for inhibition of complement activation in vitro, dose response: human AB red blood cells, human O plasma, increasing amounts of peptide
In short: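 Type AB human erythrocytes (5.0×10^7) incubated with 15% (final) type O human serum and 0.5 mM peptide in GVBS^++, 1 h at 37 °C. Hemolysis read as supernatant absorbance at 412 nm, expressed as percent of the serum-plus-RBC positive control; means of three independent experiments ±SEM.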

CTLA-4 = biological target: T1, CTLA-4 (Homo sapiens, UniProt P16410); test: CTLA-4 Blockade Bioassay (Promega); design: host or cells: Jurkat T cells (CTLA-4 effector cells); aAPC/Raji cells; settings: increasing concentrations
T1 sequence (P16410 36-223): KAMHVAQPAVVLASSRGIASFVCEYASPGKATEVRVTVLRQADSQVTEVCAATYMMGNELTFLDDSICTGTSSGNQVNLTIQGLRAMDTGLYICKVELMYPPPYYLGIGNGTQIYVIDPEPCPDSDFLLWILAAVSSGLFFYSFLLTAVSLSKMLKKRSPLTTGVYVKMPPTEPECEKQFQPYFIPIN
Description: CTLA-4 effector cells were incubated with aAPC/Raji Cells in the absence or presence of increasing concentrations of anti-CTLA-4 antibody (positive control), RLS-0127*, RLS-0130, RLS-0156, RLS-0170 and RLS-0174. Luminescence was detected in luminometer plate reader.
To assess if PIC1 peptides could block CTLA-4 inhibitory activity in a cell-based assay, select peptides were screened in the CTLA-4 Blockade Bioassay (Promega). This bioluminescent cell-based assay is used to measure the potency and stability of molecules targeting CTLA-4 and consists of two genetically engineered cell lines: CTLA-4 effector cells: Jurkat T cells expressing human CTLA-4 and a luciferase reporter driven by a native promoter which responds to TCR/CD28 activation and aAPC/Raji Cells: Raji cells expressing an engineered cell surface protein designed to activate cognate TCRs in an antigen-independent manner and endogenously expressing CTLA-4 ligands CD80 and CD86. When the two cell types are co-cultured, CTLA-4 competes with CD28 for their shared ligands, CD80 and CD86 and thus inhibits CD28 pathway activation and promoter-mediated luminescence. Addition of a molecule that blocks the interaction of CTLA-4 with its ligands CD80 and CD86 results in promoter-mediated luminescence.

PD-1/PD-L1 interaction = biological target: T2, PD-1/PD-L1 interaction (Homo sapiens, UniProt Q15116+Q9NZQ7); test: PD-1/PD-L1 Blockade Bioassay (Promega); settings: increasing peptide concentrations
T2 construct: host or cells: PD-1 effector cells; PD-L1 aAPC/CHO-K1 cells
T2 sequence (Q15116 25-288): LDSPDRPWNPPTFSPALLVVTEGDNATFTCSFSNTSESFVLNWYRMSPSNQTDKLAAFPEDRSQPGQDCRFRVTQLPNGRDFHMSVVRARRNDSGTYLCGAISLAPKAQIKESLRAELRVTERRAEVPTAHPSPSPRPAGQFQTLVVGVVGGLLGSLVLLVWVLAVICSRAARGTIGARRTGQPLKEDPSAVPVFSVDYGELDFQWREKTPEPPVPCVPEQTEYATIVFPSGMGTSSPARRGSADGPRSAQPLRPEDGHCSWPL
T2 sequence (Q9NZQ7 19-290): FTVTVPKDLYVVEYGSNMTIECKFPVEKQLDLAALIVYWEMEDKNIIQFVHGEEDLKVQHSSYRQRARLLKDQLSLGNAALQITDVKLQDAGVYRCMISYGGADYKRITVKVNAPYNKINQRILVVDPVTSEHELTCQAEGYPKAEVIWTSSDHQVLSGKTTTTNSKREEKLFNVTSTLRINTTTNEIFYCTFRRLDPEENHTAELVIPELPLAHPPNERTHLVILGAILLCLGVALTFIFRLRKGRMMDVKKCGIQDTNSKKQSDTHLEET
In short: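 PD-1 effector cells co-cultured with PD-L1 aAPC/CHO-K1 cells, with or without increasing concentrations of peptides; anti-PD-1 antibody as positive control. Blockade of PD-1/PD-L1 restores TCR signalling, read as NFAT-driven luciferase luminescence.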

Row | Molecule | inhibition of ABO incompatible hemolysis compared to PA-I8Sar ([1]; peptide 0.8 mg/ml (~0.5 mM)) | inhibitory activity in CTLA-4 blockade bioassay (luminescence) (CTLA-4) | inhibition of PD-1/PD-L1 inhibitory signaling (luminescence) (PD-1/PD-L1 interaction) | inhibition of PD-1/PD-L1 inhibitory signaling (luminescence) (PD-1/PD-L1 interaction; listed as RLS-0117) | inhibition of complement activation in vitro, dose response [1]
1 | CC[C@H](C)[C@H](N)C(=O)N[C@]1(C)CCCCCCC=CCCC[C@@](C)(C(=O)N[C@@H](CS)C(=O)N[C@@H](CCC(N)=O)C(=O)N[C@@H](CCC(=O)O)C(=O)N[C@@H](CCCNC(=N)N)C(=O)N[C@@H](C)C(=O)N[C@@H](C)C(=O)O)NC(=O)CN(C)C(=O)[C@@H]2CCCN2C(=O)[C@H](CCC(=O)O)NC(=O)[C@H](CC(C)C)NC(=O)[C@H]([C@@H](C)CC)NC(=O)[C@H](CC(C)C)NC1=O [PA-0115, IR8LILEP(Sar)S5CQERAA] (H-I[R8]LILEP[Sar][S5]CQERAA-OH; staple 2-9) | enhanced activity | did not | did not show PD-1/PD-L1 inhibitory activity |  | 
2 | CC[C@H](C)[C@H](N)C(=O)N[C@@H](C)C(=O)N[C@@H](CC(C)C)C(=O)N[C@H](C(=O)N[C@@H](CC(C)C)C(=O)N[C@@H](CCC(=O)O)C(=O)N1CCC[C@H]1C(=O)N(C)CC(=O)N[C@@H](CS)C(=O)N[C@@]1(C)CCCC=CCCC[C@@](C)(C(=O)N[C@@H](C)C(=O)O)NC(=O)[C@H](CCCNC(=N)N)NC(=O)[C@H](CCC(=O)O)NC(=O)[C@H](CCC(N)=O)NC1=O)[C@@H](C)CC [PA-0117, IALILEP(Sar)CS5QERS5A] (H-IALILEP[Sar]C[S5]QER[S5]A-OH; staple 10-14) |  | did not |  | increase in luminescence indicative of inhibition of PD-1/PD-L1 inhibitory signaling; also recorded: able to inhibit PD-1/PD-L1 mediated cell signaling | 
3 | IALILEP(Sar)CCQERA (IALILEP[Sar]CCQERA; cysteine pairing not given here) [RLS-0133*] |  | did not | increase in luminescence indicative of inhibition of PD-1/PD-L1 inhibitory signaling; also recorded: able to inhibit PD-1/PD-L1 mediated cell signaling |  | dose-dependently inhibited complement activation; also recorded: inhibit complement activation
4 | IALILEP(Sar)dCCQERRA (IALILEP[Sar][dC]CQERRA; cysteine pairing not given here) [RLS-0127*] |  | showed inhibitory activity; also recorded: able to inhibit CTLA-4 mediated cell signaling | increase in luminescence indicative of inhibition of PD-1/PD-L1 inhibitory signaling; also recorded: able to inhibit PD-1/PD-L1 mediated cell signaling |  | dose-dependently inhibited complement activation; also recorded: very similar levels of inhibition to the positive control; also recorded: inhibit complement activation
